# Assay results from ChEMBL document CHEMBL3390836, “Mannich- and LedererManasse-based analogues of the natural product S-(+)-curcuphenol as cancer proliferation and migration inhibitors” (Medchemcomm, 2012).
# Key:
# Assay type in all cases: functional
# [1] = test system: MDA-MB-468; assay: Cytotoxicity against human MDA-MB-468 cells assessed as cell growth at 10^-7 M after 48 hrs by SRB assay relative to control; details: MDA-MB-468, 48 h, read-out: Activity
# [2] = test system: KM12; assay: Cytotoxicity against human KM12 cells assessed as cell growth at 10^-7 M after 48 hrs by SRB assay relative to control; details: KM12, 48 h, read-out: Activity
# [3] = test system: SW-620; assay: Cytotoxicity against human SW620 cells assessed as cell growth at 10^-7 M after 48 hrs by SRB assay relative to control; details: SW-620, 48 h, read-out: Activity
# [4] = test system: IGROV-1; assay: Cytotoxicity against human IGROV1 cells assessed as cell growth at 10^-7 M after 48 hrs by SRB assay relative to control; details: IGROV-1, 48 h, read-out: Activity
# [5] = test system: SF-539; assay: Cytotoxicity against human SF539 cells assessed as cell growth at 10^-4 M after 48 hrs by SRB assay relative to control; details: SF-539, 48 h, read-out: Activity
# [6] = Cytotoxicity against human NCI-ADR-RES cells assessed as cell growth at 10^-7 M after 48 hrs by SRB assay relative to control; details: read-out: Activity
# [7] = test system: 786-0; assay: Cytotoxicity against human 786-0 cells assessed as cell growth at 10^-8 M after 48 hrs by SRB assay relative to control; details: 786-0, 48 h, read-out: Activity
# [8] = test system: LOX IMVI; assay: Cytotoxicity against human LOXIMVI cells assessed as cell growth at 10^-7 M after 48 hrs by SRB assay relative to control; details: read-out: Activity
# [9] = test system: HT-29; assay: Cytotoxicity against human HT-29 cells assessed as cell growth at 10^-7 M after 48 hrs by SRB assay relative to control; details: HT-29, 48 h, read-out: Activity
# [10] = Cytotoxicity against human HCT15 cells assessed as cell growth at 10^-7 M after 48 hrs by SRB assay relative to control; details: HCT-15, 48 h, read-out: Activity
# [11] = test system: TK-10; assay: Cytotoxicity against human TK10 cells assessed as cell growth at 10^-6 M after 48 hrs by SRB assay relative to control; details: TK-10, 48 h, read-out: Activity
# [12] = Cytotoxicity against human OVCAR5 cells assessed as cell growth at 10^-4 M after 48 hrs by SRB assay relative to control; details: OVCAR-5, 48 h, read-out: Activity
# [13] = test system: SF-268; assay: Cytotoxicity against human SF268 cells assessed as cell growth at 10^-8 M after 48 hrs by SRB assay relative to control; details: SF-268, 48 h, read-out: Activity
# [14] = test system: SNB-75; assay: Cytotoxicity against human SNB75 cells assessed as cell growth at 10^-4 M after 48 hrs by SRB assay relative to control; details: SNB-75, 48 h, read-out: Activity
# [15] = test system: U-251; assay: Cytotoxicity against human U251 cells assessed as cell growth at 10^-4 M after 48 hrs by SRB assay relative to control; details: U-251, 48 h, read-out: Activity
# [16] = test system: MCF7; assay: Cytotoxicity against human MCF7 cells assessed as cell growth at 10^-8 M after 48 hrs by SRB assay relative to control; details: MCF7, 48 h, read-out: Activity
# [17] = test system: MDA-MB-231; assay: Cytotoxicity against human MDA-MB-231 cells assessed as cell growth at 10^-6 M after 48 hrs by SRB assay relative to control; details: MDA-MB-231, 48 h, read-out: Activity
# [18] = test system: NCI-H322M; assay: Cytotoxicity against human NCI-H322M cells assessed as cell growth at 10^-8 M after 48 hrs by SRB assay relative to control; details: read-out: Activity
# [19] = Cytotoxicity against human OVCAR3 cells assessed as cell growth at 10^-6 M after 48 hrs by SRB assay relative to control; details: OVCAR-3, 48 h, read-out: Activity
# [20] = Cytotoxicity against human OVCAR8 cells after 48 hrs by SRB assay; details: OVCAR-8, 48 h
# [21] = Cytotoxicity against human SKOV3 cells assessed as cell growth at 10^-6 M after 48 hrs by SRB assay relative to control; details: SK-OV-3, 48 h, read-out: Activity
# [22] = test system: Malme-3M; assay: Cytotoxicity against human MALME-3M cells assessed as cell growth at 10^-6 M after 48 hrs by SRB assay relative to control; details: read-out: Activity
# [23] = Cytotoxicity against human OVCAR4 cells assessed as cell growth at 10^-8 M after 48 hrs by SRB assay relative to control; details: OVCAR-4, 48 h, read-out: Activity
# [24] = test system: SF-268; assay: Cytotoxicity against human SF268 cells after 48 hrs by SRB assay; details: SF-268, 48 h
# [25] = test system: U-251; assay: Cytotoxicity against human U251 cells after 48 hrs by SRB assay; details: U-251, 48 h
# [26] = test system: 786-0; assay: Cytotoxicity against human 786-0 cells assessed as cell growth at 10^-7 M after 48 hrs by SRB assay relative to control; details: 786-0, 48 h, read-out: Activity
# [27] = test system: TK-10; assay: Cytotoxicity against human TK10 cells after 48 hrs by SRB assay; details: TK-10, 48 h
# [28] = Cytotoxicity against human OVCAR5 cells assessed as cell growth at 10^-6 M after 48 hrs by SRB assay relative to control; details: OVCAR-5, 48 h, read-out: Activity
# [29] = test system: SNB-19; assay: Cytotoxicity against human SNB19 cells assessed as cell growth at 10^-7 M after 48 hrs by SRB assay relative to control; details: SNB-19, 48 h, read-out: Activity
# [30] = test system: HL-60(TB); assay: Cytotoxicity against human HL-60(TB) cells assessed as cell growth at 10^-4 M after 48 hrs by SRB assay relative to control; details: HL-60, 48 h, read-out: Activity
# [31] = Cytotoxicity against human PC3 cells assessed as cell growth at 10^-8 M after 48 hrs by SRB assay relative to control; details: PC-3, 48 h, read-out: Activity
# [32] = test system: U-251; assay: Cytotoxicity against human U251 cells assessed as cell growth at 10^-8 M after 48 hrs by SRB assay relative to control; details: U-251, 48 h, read-out: Activity
# [33] = test system: A549; assay: Cytotoxicity against human A549 cells assessed as cell growth at 10^-8 M after 48 hrs by SRB assay relative to control; details: A549, 48 h, read-out: Activity
# [34] = test system: HOP-62; assay: Cytotoxicity against human HOP62 cells assessed as cell growth at 10^-6 M after 48 hrs by SRB assay relative to control; details: HOP-62, 48 h, read-out: Activity
# [35] = Cytotoxicity against human HCT116 cells after 48 hrs by SRB assay; details: HCT-116, 48 h
# [36] = test system: NCI-H460; assay: Cytotoxicity against human NCI-H460 cells after 48 hrs by SRB assay; details: NCI-H460, 48 h
# [37] = read-out: LC50 (the source's name)
compound,measurement,setting,value
COc1ccc(CCN2COc3c([C@@H](C)CCC=C(C)C)ccc(C)c3C2)cc1OC,growth at 0.1 µM,[1],60%
same,growth at 0.1 µM,[2],96%
same,growth at 0.1 µM,[3],93%
same,growth at 0.1 µM,[4],97%
same,growth at 100 µM,[5],-100%
same,growth at 0.1 µM,[6],99%
same,growth at 0.01 µM,[7],101%
same,growth at 0.1 µM,[8],84%
same,growth at 0.1 µM,[9],93%
same,growth at 0.1 µM,[10],86%
same,growth at 1 µM,[11],89%
same,growth at 100 µM,[12],-100%
same,growth at 0.01 µM,[13],85%
same,growth at 100 µM,[14],-50%
same,growth at 100 µM,[15],-100%
same,growth at 0.01 µM,[16],91%
same,growth at 1 µM,[17],91%
same,growth at 0.01 µM,[18],87%
same,growth at 1 µM,[19],91%
same,GI50,[20],4.21 µM
same,TGI,[20],20.2 µM
same,CC50,[20]; [37],89.5 µM
same,growth at 1 µM,[21],102%
same,growth at 1 µM,[22],79%
same,growth at 0.01 µM,[23],96%
same,GI50,[24],1450 nM
same,TGI,[24],4.34 µM
same,CC50,[24]; [37],17.3 µM
same,GI50,[25],1910 nM
same,LC50,[25],11.2 µM
same,TGI,[25],4.47 µM
same,growth at 0.1 µM,[26],65%
same,GI50,[27],2190 nM
same,LC50,[27],24.6 µM
same,TGI,[27],5.95 µM
same,growth at 1 µM,[28],97%
same,growth at 0.1 µM,[29],96%
same,growth at 100 µM,[30],-5%
same,growth at 0.01 µM,[31],94%
same,growth at 0.01 µM,[32],92%
same,growth at 0.01 µM,[33],87%
same,growth at 1 µM,[34],97%
same,GI50,[35],2170 nM
same,TGI,[35],4.94 µM
same,CC50,[35]; [37],13.3 µM
same,GI50,[36],2060 nM
same,TGI,[36],4.3 µM
same,CC50,[36]; [37],8.95 µM
